Laboratory results reported in patent US20130165771A1 (priority 2011, published 2013).

Key:
fundus = settings: following intravenous injection of the dye; clinical practice; cited from earlier work
[1] = test system: eyes with choroidal neovascularization (CNV); assay: Comparison of FITC-dextran with Na-fluorescein fundus angiography on eyes with CNV (Example 6); assay type: in vivo; settings: rabbit CNV; Na-fluorescein 5 mg/kg i.v.; FITC-dextran 70 kDa 2.5 mg/kg i.v.
Source text: Materials and Methods: The choroidal neovascularization (CNV) in rabbit eye was induced by sub-retinal injection of vascular growth factors (VGF).

[2] = test system: eye with choroidal neovascularization complicated with sub-retinal hemorrhage; assay: Comparison on the eye with CNV complicated with sub-retinal hemorrhage (Example 8); assay type: in vivo; settings: rabbit; Na-fluorescein 5 mg/kg i.v.; FITC-dextran 70 kDa 2.5 mg/kg i.v.; same rabbit
Protocol: Materials and Methods: the choroidal neovascularization in the rabbit eye was induced by sub-retinal injection of vascular growth factors (VGF). The sub-retinal hemorrhage was caused by the pathological changes of the newly grown blood vessels underneath of the retinal. […] The Na-fluorescence fundus angiography and the FITC-dextran fundus angiography, were performed on the same rabbit with one-day interval between these two fundus angiographies.

serum proteins = settings: in the blood stream; cited from earlier work
[3] = test system: eye with retinal neovascularization; assay: Comparison of FITC-dextran with Na-fluorescein fundus angiography on the eye with retinal neovascularization (Example 10); settings: monkey eye with retinal neovascularization; following injection of the dye
Protocol: Materials and Methods: Retinal neovascularization in the eye of the monkey was induced by sub-retinal administration of vascular growth factors (VGF). For Na-fluorescence fundus angiography, the 0.5% of Na-fluorescein solution was injected through the antecubital vein at the dose of 5 mg/kg of the body weight. […] The fundus angiograms were obtained using a regular fluorescence fundus system (Topcon 50 VT).

[4] = test system: eye with CNV complicated with proliferated retinopathy and atrophy of choroidal circulation; assay: Comparison of Na-fluorescein, ICG and FITC-dextran fundus angiography on the eye with proliferative CNV (Example 9, Table 1); assay type: in vivo, rabbit; settings: for morphological detail of the CNV, proliferated retinopathy and atrophy of choroidal circulation on the angiogram: Dutch-belted rabbit, same eye, Na-fluorescein 5 mg/kg, ICG 2.5 mg/kg, FITC-dextran 70 kDa 2.5 mg/kg i.v.; for Clarity of angiography / Neovascularization complex / Duration: Retinal neovascularization / Duration: Normal retinal vessels / Duration: Choroidal neovascularization / Duration: Normal Choroidal vasculatures: Table 1
Source text: Materials and Methods: the choroidal neovascularization in the eye of Dutch-belted rabbit was induced by sub-retinal injection of vascular growth factors (VGF). The proliferated retinopathy of the choroidal neovascularization membrane and the atrophy of choroidal circulation were the complications of the CNV, occurring at the late stage of the disease. […] The fundus angiograms of IGC were obtained using the fundus image system (Topcon 50 VT) at wavelength of 800 nm.

[5] = test system: eye with choroidal neovascularization complicated with retinal detachment; assay: Comparison on the eye with CNV complicated with retinal detachment (Example 7); assay type: in vivo; settings: rabbit; Na-fluorescein 5 mg/kg i.v.; FITC-dextran 70 kDa 2.5 mg/kg i.v.; same rabbit
Protocol: Materials and Methods: the choroidal neovascularization in the eye of rabbit was induced by sub-retinal injection of vascular growth factors (VGF). The complicated retinal detachment in the eye was caused by leakage of blood from the choroidal newly grown blood vessels and accumulated in the space of the sub-retinal between the detached retinal and the pigmented layer. […] The Na-fluorescence fundus angiography and the FITC-dextran fundus angiography were performed on the same rabbit with one-day interval between these two fundus angiographies.

[6] = test system: retinal pigmental endothelial cells; settings: reported (Kodjikian, et al, 2005; Giuseppe, et al, 2008); cited from earlier work
[7] = test system: eye with retinal detachment; assay: FITC-dextran fundus angiography in the eye with retinal detachment (Example 3); assay type: in vivo; settings: pigmented rabbit; detachment induced by sub-retinal Healon; FITC-dextran 70 kDa, 25 mg/ml, 0.3 ml i.v.
Protocol: Materials and Methods: The retinal detachment was induced by sub-retinal injection of Healon in the eye of pigmented rabbit. […] The volume of 0.3 ml of the solution was injected intravenously through the marginal vein of the rabbit.

[8] = test system: retinal vasculature and choroidal vasculature; assay: FITC-dextran fundus angiography in normal rabbit eyes (Example 1); assay type: in vivo; settings: naive rabbit; FITC-dextran 70 kDa, 25 mg/ml, 0.3 ml intravenously
Source text: Materials and Methods: The naive rabbits with bodyweight of 1.8-2.5 kilograms were used for this test.

choroidal vasculature = assay: Effective image duration of FITC-dextran fundus angiography in rabbit (Example 2); assay type: in vivo; settings: Dutch Belted rabbit, single intravenous injection of FITC-dextran 70 kDa, 25 mg/ml, 0.3 ml
Protocol: The volume of 0.3 ml of the solution was injected through the marginal vein of a Dutch Belted rabbit. […] The angiograms of choroidal vasculature were captured using a regular fluorescence fundus image system (Topcon 50 VT).

[9] = test system: eye with choroidal neovascularization (CNV); assay: FITC-dextran fundus angiography on the eye with choroidal neovascularization (Example 4); assay type: in vivo; settings: pigmented rabbit; CNV induced by sub-retinal vascular growth factors; FITC-dextran 70 kDa, 25 mg/ml, 0.3 ml i.v.
Protocol: Materials and Methods: The choroidal neovascularization (CNV) was induced by sub-retinal injection of vascular growth factors in the eye of pigmented rabbit. […] The volume of 0.3 ml of the solution was injected through marginal vein of the rabbit.

Row | Compound | best effective image duration (fundus) | morphological detail of the CNV on the angiogram [1] | morphological detail of the CNV and the hemorrhage on the angiogram [2] | molecules bound to serum proteins (serum proteins) | effective image duration [3] | morphological detail of the CNV, proliferated retinopathy and atrophy of choroidal circulation on the angiogram [4] | Clarity of angiography [4] | Neovascularization complex [4] | Duration: Retinal neovascularization ([4]; then leak out) [s] | Duration: Normal retinal vessels ([4]; then watch out) | morphological detail of the CNV and the retinal detachment on the angiogram [5] | Duration: Choroidal neovascularization [4] [min] | Duration: Normal Choroidal vasculatures [4] [min] | toxic effects on retinal pigmental endothelial cells and outer portion of the retinal tissues [6] | quality of angiograms of the eye with retinal detachment [7] | visualization of retinal vasculature and choroidal vasculature in a same fundus angiogram [8] | effective image duration (choroidal vasculature) | visualization of new blood vessels grown from choroidal [9] | Duration: Normal retinal vessels [4] [h] | Duration: Retinal neovascularization [4] [s]
1 | O=C([O-])c1ccccc1-c1c2ccc(=O)cc-2oc2cc([O-])ccc12.[Na+].[Na+] [Na-Fluorescein, sodium fluorescein] | about 5 minutes | without the morphological detail of the CNV | without the morphological details of the CNV and the hemorrhage | 70-80% | about two | without morphological details of the CNV | good | poor | ≤ 10 | 2-5 minutes, | without the morphological details of the CNV and the detachment | – | – | – | – | – | – | – | – | –
2 | CC1(C)C(/C=C/C=C/C=C/C=C2\N(CCCCS(=O)(=O)O)c3ccc4ccccc4c3C2(C)C)=[N+](CCCCS(=O)(=O)[O-])c2ccc3ccccc3c21 [ICG, indocyanine green] | – | – | – | 98% | – | able to visualize the structure of the CNV and the injured choroidal vascular networks | poor | good | – | – | – | 3 to 5 | 3 to 5 | toxic effects | – | – | – | – | – | –
3 | fluorescein isothiocyanate dextran [FITC-Dextran] | – | detailed morphological information of the newly grown vasculature was revealed | able to provide the morphological nature of the newly grown vasculature complicated with retinal hemorrhage | – | – | able to visualize the newly grown blood vessels with details of the CNV | best | best | – | – | the morphological nature of the newly grown vasculature and the detachment of the retina were visualized | >60 | >60 | – | super clear and high resolution angiograms | able to visualize both retinal vasculature and choroidal vasculature | up to 2 hours | able to visualize the new blood vessels grown from choroidal | >1 | >3600
